Assay results reported in US5023254A, “Aminoalkylindoles, their production, and pharmaceutical preparations based thereon” (Schering Aktiengesellschaft, priority 1988, dated 1991).
Where two headings read alike, the source gives them in different places.

What was measured:
mouse uterus [1] = test: Uterotrophic test on infantile mouse (estrogen activity); format: in vivo; set-up: unit not given here
Excerpt: (§1) This test is fully described in Cancer Treatment Reviews 1984, 11, 147, and J.Med.Chem., 1984, 27, 1439.

mouse uterus [2] = test: Antiuterotrophic test on infantile mouse (anti-estrogen activity); format: in vivo; set-up: Antiuterotrophic Test Rel. uterus wgt / Antiuterotrophic Test Action (rel. uterus wgt): unit not given here; settings: for inhibition in vivo at 0.025 mg: dose 25 ug (per animal)
Excerpt: as §1

[3] = system: human MCF-7 breast cancer cells; test: growth of hormone-dependent human MCF-7 breast cancer cells, cell count; format: cell-based; settings: for activity at 0.1 µM / activity at 0.5 µM / activity at 1 µM / activity at 5 µM / activity at 10 µM: Homo sapiens, read-out: Cell Count (% T/C); for activity at 10 µM: MCF-7, 1 × 10^-5 M
Excerpt: (§2) The test protocol for the research is fully described in Eur.J. Cancer Clin. Oncol.

[4] = system: human MCF-7 breast cancer cells; test: [3H] thymidine incorporation in hormone-dependent human MCF-7 breast cancer cells; format: cell-based; settings: for activity at 0.1 µM / activity at 0.5 µM / activity at 1 µM / activity at 5 µM: Homo sapiens, read-out: [3H] Thymidine incorporation (% T/C)
Excerpt: as §2

estrogen receptor = target: T1, estrogen receptor (Bos taurus, UniProt P49884); test: relative binding affinity (RBA) for the estrogen receptor from calf uterus, displacement of 3H-17β estradiol; settings: calf uterus; relative to 17 beta estradiol = 100
T1 construct: estrogen receptor from calf uterus; from tissue; host or cells: calf uterus
T1 sequence (P49884 1-596): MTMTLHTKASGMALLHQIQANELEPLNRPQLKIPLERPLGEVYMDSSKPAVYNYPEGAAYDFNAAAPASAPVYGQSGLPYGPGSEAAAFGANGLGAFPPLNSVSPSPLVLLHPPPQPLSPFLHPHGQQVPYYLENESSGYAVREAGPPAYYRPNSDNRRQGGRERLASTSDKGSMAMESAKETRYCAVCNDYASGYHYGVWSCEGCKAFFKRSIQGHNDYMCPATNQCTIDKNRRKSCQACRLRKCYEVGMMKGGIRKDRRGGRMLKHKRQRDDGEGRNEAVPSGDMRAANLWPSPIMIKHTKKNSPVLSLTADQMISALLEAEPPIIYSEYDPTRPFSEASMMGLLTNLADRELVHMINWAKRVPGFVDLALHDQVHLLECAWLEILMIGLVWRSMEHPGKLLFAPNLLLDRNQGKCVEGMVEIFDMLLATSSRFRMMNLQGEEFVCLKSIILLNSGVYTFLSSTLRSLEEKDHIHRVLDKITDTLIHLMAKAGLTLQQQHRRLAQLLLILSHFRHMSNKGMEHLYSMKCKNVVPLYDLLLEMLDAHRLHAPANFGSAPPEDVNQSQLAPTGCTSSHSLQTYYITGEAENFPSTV
Excerpt: *Relative binding affinities for the estrogen receptor from calf uterus,

[5] = Mus musculus, read-out: Antiuterotrophic Test Inhib. (%)
[6] = infantile mouse, dose 5 ug/animal
[7] = infantile mouse, dose 25 ug/animal
[8] = infantile mouse, read-out: Antiuterotrophic Test Inhib. (%)
[9] = 10^-7 M, six days after incubation

RBA (relative binding affinity for the estrogen receptor) (estrogen receptor)	SMILES	Uterotrophic Test Rel. uterus wgt (mouse uterus [1]; dose 5 ug)	Antiuterotrophic Test Rel. uterus wgt (mouse uterus [2]; infantile mouse, dose 1 ug)	Antiuterotrophic Test Rel. uterus wgt (mouse uterus [2]; infantile mouse, dose 5 ug)	Antiuterotrophic Test Rel. uterus wgt (mouse uterus [2]; infantile mouse, dose 25 ug)	Antiuterotrophic Test Rel. uterus wgt (mouse uterus [2]; infantile mouse, dose 125 ug)	Uterotrophic Test Action (rel. uterus wgt) (mouse uterus [1]; dose 5 ug/animal)	Uterotrophic Test Action (rel. uterus wgt) (mouse uterus [1]; dose 25 ug/animal)	inhibition in vivo at 0.125 mg (mouse uterus [2]; [5]) [%]	Antiuterotrophic Test Action (rel. uterus wgt) (mouse uterus [2]; [6])	Antiuterotrophic Test Action (rel. uterus wgt) (mouse uterus [2]; [7])	activity at 10 µM ([3]; MCF7) [%]	activity at 1 µM ([3]; MCF7, MCF-7, 1 × 10^-6 M) [%]	activity at 0.1 µM ([3]; MCF7, MCF-7, 1 × 10^-7 M) [%]	activity at 5 µM ([3]; MCF7, MCF-7, 5 × 10^-6 M) [%]	activity at 0.5 µM ([3]; MCF7, MCF-7, 5 × 10^-7 M) [%]	inhibition in vivo at 0.025 mg (mouse uterus [2]; [8]) [%]	activity at 1 µM ([4]; MCF7, MCF-7, 1 × 10^-6 M) [%]	activity at 0.1 µM ([4]; MCF7, MCF-7, 1 × 10^-7 M) [%]	other results
–	Cc1c(-c2ccc(O)cc2)n(CCCCCCN2CCCC2)c2ccc(O)cc12 [Compound 6, 5-Hydroxy-2-(4-hydroxyphenyl)-3-methyl-1-[6-pyrrolidino-hexyl]-indole]	9.0 ± 1.8	48.3 ± 7.2	20.1 ± 7.3	12.6 ± 1.9	8.9 ± 1.6	–	–	–	–	–	–	–	–	–	–	–	–	–	Uterotrophic Test Rel. uterus wgt (mouse uterus [1]; dose 50 ug): 8.2 ± 1.8; Uterotrophic Test Rel. uterus wgt (mouse uterus [1]; dose 250 ug): 12.7 ± 2.7; inhibition in vivo at 0.001 mg (mouse uterus [2]; Mus musculus, read-out: Antiuterotrophic Test Inhib. (%), infantile mouse, dose 1 ug): 20%; activity at 0.1 µM ([3]; MCF7, […]): 65%; activity at 0.5 µM ([3]; MCF7, […]): 49%; activity at 1 µM ([3]; MCF7, […]): 24%; activity at 5 µM ([3]; MCF7, […]): 12%; activity at 0.1 µM ([4]; MCF7, […]): 32%; activity at 0.5 µM ([4]; MCF7, […]): 32%; activity at 1 µM ([4]; MCF7, […]): 22%; activity at 5 µM ([4]; MCF7, […]): 3%
26	Cc1c(-c2ccc(O)cc2)n(CCCCCC(=O)N2CCOCC2)c2ccc(O)cc12 [Compound 18, 5-Hydroxy-2-(4-hydroxyphenyl)-3-methyl-1-(6-morpholinocarbonylpentyl)-indole]	–	–	–	–	–	22.0 ± 5.6	21.2 ± 4.6	41	53.5 ± 8.7	52.8 ± 7.4	33.3 ± 2.8	56.4 ± 5.2	57.5 ± 6.8	42.4 ± 3.7	58.1 ± 6.7	–	–	–	Uterotrophic Test Action (rel. uterus wgt) (mouse uterus [1]; dose 1 ug/animal): 20.2 ± 3.4
15	Cc1c(-c2ccc(O)cc2)n(CCCCCCNCc2ccccc2)c2ccc(O)cc12 [Compound 12, 1-(6-Benzylaminohexyl)-5-hydroxy-2-(4-hydroxyphenyl)-3-methyl-indole]	–	–	–	–	–	17.8 ± 4.6	23.6 ± 2.5	51	53.2 ± 9.0	44.6 ± 7.1	41	46	47	–	–	43	–	–	inhibition in vivo at 0.005 mg (mouse uterus [2]; infantile mouse, dose 5 ug (per animal), read-out: Antiuterotrophic Test Inhib. (%)): 25%; Antiuterotrophic Test Action (rel. uterus wgt) (mouse uterus [2]; infantile mouse, dose 625 ug/animal): 41.8 ± 7.4; inhibition in vivo at 0.625 mg (mouse uterus [2]; infantile mouse, dose 625 ug/animal, read-out: Antiuterotrophic Test Inhib. (%)): 49%
–	CC/C(=C(\c1ccccc1)c1ccc(OCCN(C)C)cc1)c1ccccc1 [Tamoxifen, reference compound]	–	–	–	–	–	–	–	–	–	–	–	27	77	–	–	–	27	71	inhibition of MCF-7 cell growth / cell count (in words) [3, 9]: no significant effect; thymidine incorporation (in words) [4, 9]: no significant effect
3.6	Cc1c(-c2ccc(O)cc2)n(CCCCN2CCCC2)c2ccc(O)cc12 [Compound 1, 5-Hydroxy-2-(4-hydroxyphenyl)-3-methyl-1-[4-pyrrolidino-butyl]-indole]	8.0 ± 3.1	43.7 ± 8.2	47.6 ± 10.5	16.2 ± 4.6	25.5 ± 7.9	–	–	53	–	–	–	94	106	62	84	78	85	67	Uterotrophic Test Rel. uterus wgt (mouse uterus [1]; dose 1 ug): 7.6 ± 2.8; Uterotrophic Test Rel. uterus wgt (mouse uterus [1]; dose 25 ug): 6.4 ± 1.1; Uterotrophic Test Rel. uterus wgt (mouse uterus [1]; dose 125 ug): 6.4 ± 1.3; inhibition in vivo at 0.001 mg (mouse uterus [2]; infantile mouse, dose 1 ug, read-out: Antiuterotrophic Test Inhib. (%)): 5%; activity at 5 µM ([4]; MCF7, MCF-7, 5 × 10^-6 M): 74%; activity at 0.5 µM ([4]; MCF7, MCF-7, 5 × 10^-7 M): 76%
